{"source": "patent US20230181614A1", "about": "“ADMINISTRATION OF CITICOLINE TO IMPROVE COGNITIVE PERFORMANCE, ATTENTIONAL PERFORMANCE, AND MOTOR FUNCTION” (KYOWA HAKKO BIO CO., LTD., priority 2014, published 2023)", "test_system": "Healthy subjects, ages 13-18", "assay": "Monitoring of Side Effects Scale (MOSES)", "assay_type": "in vivo, human", "conditions": "for V2 MOSES (Mean): Visit 2; for V3 MOSES (Mean): Visit 3; for MOSES V3-V2 Score (Mean): visit difference score V3-V2; for MOSES difference scores, between groups: visit 1 to visit 3 (so in the source); for MOSES, within-group change: visit 2 to 3", "description": "Study participants were screened by telephone prior to study enrollment. Healthy subjects, ages 13-18, with no significant medical conditions and no history of co-morbid psychiatric disorder, current Axis I or II diagnosis, or previous participation in a pharmacotherapeutic trial, were selected. Use of any psychotropic medication or any previous head injury resulting in loss of consciousness for 5 or more minutes were used as exclusion criteria. While no participant met criteria for a neuropsychiatric disorder at enrollment, clinical assessments were still completed throughout the study to evaluate changes in mood state. In addition, self-reports of sleep habits, lifestyle, and exercise routines were also administered at baseline as well as at each study visit to assess changes in health habits during study participation. Following the completion of Visit 1 assessment, participants were given their 28-day supply of citicoline (250 mg or 500 mg) or placebo, which was randomly assigned. They were instructed to take one capsule a day every day for the next 28 days. Visit 2 occurred fourteen days after Visit 1. At Visit 2, the remaining study pills were counted and participant dosage calendars were checked to ensure compliance with the protocol. Additional neuropsychological measures and clinical assessments were administered during this visit. Participants returned for Visit 3 fourteen days later, on the 28th day of their study participation. The pill bottle and the dosage calendar were collected from each participant. Urine and blood were again obtained. Participants also participated in similar clinical and neuropsychological testing and clinical measures that were given during visit 1. The MOSES is a scale designed to assess common symptoms or adverse events associated with psychopharmacological medications. This scale is divided into nine body areas representing a typical physical examination. The interviewer asks subjects whether they have each symptom on the measure and, if so, asks them to report the level of severity of the symptom on a scale from 0 (not present) to 4 (severe). […]", "data": [{"smiles": "C[N+](C)(C)CCOP(=O)(O)OP(=O)([O-])OC[C@H]1O[C@@H](n2ccc(N)nc2=O)[C@H](O)[C@@H]1O", "note": "[citicoline, Cytidine 5′-diphosphocholine]", "values": [{"measurement": "V2 MOSES (Mean)", "setting": "250 mg/day group", "result": 1.30}, {"measurement": "V3 MOSES (Mean)", "setting": "250 mg/day group", "result": 1.04}, {"measurement": "MOSES V3-V2 Score (Mean)", "setting": "250 mg/day group", "result": -0.26}, {"measurement": "MOSES difference scores, between groups", "setting": "250 mg/day vs 500 mg/day, p=0.64", "result": "no significant differences"}, {"measurement": "MOSES, between groups", "setting": "250 mg/day vs 500 mg/day, visit 3, p=0.11", "result": "no significant difference"}, {"measurement": "MOSES difference scores, between groups", "setting": "250 mg/day vs Placebo, p=0.70", "result": "no significant differences"}, {"measurement": "MOSES, between groups", "setting": "250 mg/day vs Placebo, visit 3, p=0.21", "result": "no significant difference"}, {"measurement": "MOSES, within-group change", "setting": "250 mg/day, p=0.34", "result": "no significant differences"}, {"measurement": "V2 MOSES (Mean)", "setting": "500 mg/day group", "result": 0.81}, {"measurement": "V3 MOSES (Mean)", "setting": "500 mg/day group", "result": 0.38}, {"measurement": "MOSES V3-V2 Score (Mean)", "setting": "500 mg/day group", "result": -0.43}, {"measurement": "MOSES, within-group change", "setting": "500 mg/day, p=0.07", "result": "trend toward significant differences"}, {"measurement": "MOSES difference scores, between groups", "setting": "Placebo vs 500 mg/day, p=0.30", "result": "no significant differences"}, {"measurement": "MOSES, between groups", "setting": "Placebo vs 500 mg/day, visit 3, p=0.85", "result": "No significant difference"}, {"measurement": "MOSES difference scores, three groups", "setting": "p=0.66", "result": "no significant differences"}, {"measurement": "MOSES, overall analysis", "setting": "three groups, visit 3, p=0.23", "result": "no significant differences"}]}]}
